Source: the supplement of paper PMC10331698
± gives the standard deviation of the averaged measurements.

What was measured:
Assay in all cases: level (log10 ratio to DMSO vehicle control); higher = higher biomarker level / cell amount than vehicle control
Settings in all cases: in DMSO
[1] = compound: Cn1cnc([N+](=O)[O-])c1Sc1ncnc2[nH]cnc12 [Azathioprine]
Protocol: (§1)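 BioMAP Diversity Plus panel of 12 human primary cell co-culture systems (3C, 4H, LPS, SAg, BT, BF4T, BE3C, CASM3C, HDF3CGF, KF3CT, MyoF, Mphg). Compounds were added 1 h before stimulation and left for 24 h (MyoF 48 h; BT 72 h for soluble read-outs or 6 d for IgG). Biomarkers were read by ELISA, cytotoxicity by SRB, PBMC viability and proliferation by Alamar Blue. Each well value was divided by the mean of 8 DMSO control wells on the same plate and log10 transformed; duplicate blinded samples were tested at 4 concentrations.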

[2] = compound: N=C(N)C(F)(F)C(F)(F)C(F)(F)C(F)(F)C(F)(F)C(F)(F)C(F)(F)F [Perfluorooctanamidine]
Protocol: as §1

[3] = compound: O=C(O)C(F)(F)C(F)(F)C(F)(F)C(F)(F)C(F)(F)C(F)(F)C(F)(F)C(F)(F)C(F)(F)C(F)(F)C(F)(F)C(F)(F)C(F)(F)F [Perfluorotetradecanoic acid]
Protocol: as §1

[4] = compound: O=C(O)C(F)(F)C(F)(F)C(F)(F)C(F)(F)C(F)(F)C(F)(F)C(F)(F)C(F)(F)C(F)(F)C(F)(F)C(F)(F)C(F)(F)F [Perfluorotridecanoic acid]
Protocol: as §1

[5] = compound: O=C(O)C(F)(F)OC(F)(F)C(F)(F)OC(F)(F)C(F)(F)C(F)(F)C(F)(F)F [Perfluoro-3,6-dioxadecanoic acid]
Protocol: as §1

[6] = compound: O=S(=O)(O)C(F)(F)C(F)(F)C(F)(F)C(F)(F)F [Perfluorobutanesulfonic acid]
Protocol: as §1

| Test System | level (log10) ([1]; 1400 nM) | level (log10) ([1]; 4200 nM) | level (log10) ([1]; 13000 nM) | level (log10) ([1]; 38000 nM) | level (log10) ([2]; 6700 nM) | level (log10) ([2]; 20000 nM) | level (log10) ([2]; 60000 nM) | level (log10) ([3]; 6700 nM) | level (log10) ([3]; 20000 nM) | level (log10) ([4]; 1500 nM) | level (log10) ([4]; 4400 nM) | level (log10) ([4]; 13000 nM) | level (log10) ([4]; 40000 nM) | level (log10) ([5]; 6700 nM) | level (log10) ([5]; 20000 nM) | level (log10) ([5]; 60000 nM) | level (log10) ([6]; 6700 nM) | level (log10) ([6]; 20000 nM) | level (log10) ([6]; 60000 nM) |
| --- | --- | --- | --- | --- | --- | --- | --- | --- | --- | --- | --- | --- | --- | --- | --- | --- | --- | --- | --- |
| HDF3CGF:CD106/VCAM-1 | -0.0485 ± 0.1 | -0.021 ± 0.03 | -0.08 ± 0.042 | -0.243 ± 0.0057 | -0.0215 ± 0.013 | -0.132 ± 0.018 | -0.214 | -0.021 ± 0.0099 | -0.122 ± 0.012 | -0.0785 ± 0.0021 | -0.207 ± 0.14 | -0.152 ± 0.026 | -0.291 ± 0.04 | -0.0845 ± 0.0021 | -0.15 ± 0.0057 | -0.21 ± 0.013 | -0.02 ± 0.013 | -0.01 ± 0.0014 | -0.025 ± 0.058 |
| MyoF:bFGF | 0.001 ± 0.016 | 0.003 ± 0.0071 | -0.015 ± 0.016 | 0.01 ± 0.0071 | -0.0085 ± 0.032 | -0.0115 ± 0.03 | 0.044 | 0.0075 ± 0.00071 | 0.0315 ± 0.018 | 0.005 ± 0.04 | 0.017 ± 0.028 | 0.0045 ± 0.04 | 0.015 ± 0.0085 | 0.013 ± 0.02 | 0.003 ± 0.0057 | 0.02 ± 0.011 | 0.0065 ± 0.013 | 0.0105 ± 0.018 | -0.0065 ± 0.0064 |
| CASM3C:CXCL9/MIG | 0.012 ± 0.033 | -0.0135 ± 0.005 | 0.008 ± 0.0057 | 0.0525 ± 0.042 | -0.005 ± 0.013 | -0.017 ± 0.024 | 0.069 | -0.0375 ± 0.042 | 0.0295 ± 0.057 | 0.013 ± 0.044 | -0.006 ± 0.017 | -0.054 ± 0.018 | -0.0405 ± 0.054 | -0.006 ± 0.0085 | -0.0045 ± 0.015 | 0.0155 ± 0.06 | 0.01 ± 0.028 | 0.0135 ± 0.035 | 0.0465 ± 0.0092 |
| CASM3C:IL-6 | 0.011 ± 0.051 | -0.045 ± 0.0057 | -0.051 ± 0.0085 | -0.042 ± 0.072 | -0.046 ± 0.023 | -0.041 ± 0.035 | 0.041 | 0.002 ± 0.051 | 0.0135 ± 0.094 | 0.005 ± 0.062 | -0.047 ± 0.0028 | -0.059 ± 0.028 | -0.0815 ± 0.08 | -0.0205 ± 0.005 | -0.0205 ± 0.0021 | -0.0085 ± 0.03 | -0.032 ± 0.028 | -0.0375 ± 0.0021 | -0.015 ± 0.0057 |
| BE3C:PAI-I | -0.0235 ± 0.044 | 0.015 ± 0.042 | 0.003 ± 0.05 | -0.071 ± 0.03 | 0.0015 ± 0.00071 | -0.006 ± 0.0099 | -0.021 | 0.007 ± 0.058 | -0.0175 ± 0.064 | 0.006 ± 0.017 | 0.0335 ± 0.0035 | -0.004 ± 0.042 | -0.0285 ± 0.054 | 0.0345 ± 0.021 | 0.009 ± 0.031 | -0.11 ± 0.005 | -0.0015 ± 0.0035 | -0.006 ± 0.013 | 0.008 ± 0.013 |
| KF3CT:SRB | 0.003 ± 0.0057 | 0.0015 ± 0.0064 | 0.001 ± 0.0057 | -0.0065 ± 0.0021 | -0.001 ± 0.0014 | -0.004 ± 0.0014 | 0.027 | -0.0005 ± 0.0035 | 0.0025 ± 0.0078 | 0.0015 ± 0.00071 | -0.0055 ± 0.0021 | -0.0095 ± 0.0021 | -0.035 ± 0.0042 | -0.0175 ± 0.011 | -0.022 ± 0.013 | -0.013 ± 0.031 | 0.002 ± 0.0042 | 0 ± 0.0014 | 0 ± 0.0014 |
| MyoF:Collagen I | -0.0085 ± 0.015 | -0.0095 ± 0.013 | -0.024 | 0.011 ± 0.0028 | -0.0005 ± 0.013 | 0.007 ± 0.0085 | 0.047 | 0.0015 ± 0.0078 | 0.0215 ± 0.033 | -0.0045 ± 0.019 | -0.0115 ± 0.016 | -0.016 ± 0.025 | -0.213 ± 0.037 | -0.026 ± 0.025 | -0.0525 ± 0.0021 | -0.19 ± 0.011 | -0.017 ± 0.023 | -0.004 ± 0.0014 | -0.0235 ± 0.0064 |
